What all share (type): biochemical
In assay [1] the target is T1, DDR2 (Homo sapiens, UniProt Q16832).
T1 sequence (Q16832 22-855): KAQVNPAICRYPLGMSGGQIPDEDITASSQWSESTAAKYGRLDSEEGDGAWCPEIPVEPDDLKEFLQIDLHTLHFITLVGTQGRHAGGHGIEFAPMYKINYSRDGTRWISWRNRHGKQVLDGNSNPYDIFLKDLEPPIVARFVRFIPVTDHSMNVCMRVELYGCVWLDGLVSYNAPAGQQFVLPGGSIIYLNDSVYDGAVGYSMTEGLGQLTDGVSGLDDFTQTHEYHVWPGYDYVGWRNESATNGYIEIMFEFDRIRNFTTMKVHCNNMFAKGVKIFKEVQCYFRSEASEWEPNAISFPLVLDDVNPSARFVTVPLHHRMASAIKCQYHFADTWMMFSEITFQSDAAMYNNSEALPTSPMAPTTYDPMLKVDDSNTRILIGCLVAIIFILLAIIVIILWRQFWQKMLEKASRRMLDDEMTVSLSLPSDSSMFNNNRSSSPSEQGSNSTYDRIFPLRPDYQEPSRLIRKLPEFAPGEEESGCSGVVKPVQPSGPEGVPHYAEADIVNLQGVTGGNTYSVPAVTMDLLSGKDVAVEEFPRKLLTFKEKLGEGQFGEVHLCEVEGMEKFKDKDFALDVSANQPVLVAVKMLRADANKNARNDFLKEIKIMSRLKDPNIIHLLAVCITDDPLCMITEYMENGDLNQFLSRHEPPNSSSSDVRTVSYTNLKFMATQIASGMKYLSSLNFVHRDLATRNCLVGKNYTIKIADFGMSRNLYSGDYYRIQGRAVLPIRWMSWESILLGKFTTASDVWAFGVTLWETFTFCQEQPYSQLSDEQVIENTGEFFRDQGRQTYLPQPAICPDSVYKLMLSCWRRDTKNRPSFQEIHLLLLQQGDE
Kind of assay: ELISA kinase assay, DDR2. To be noted: DDR2 IC50, two separate experiments. A general note: In an ELISA, binding on a coated surface is turned into a signal by an enzyme label.

Assay [2] has as its target T2, Flt-3 (Homo sapiens, UniProt P36888).
T2 sequence (P36888 27-993): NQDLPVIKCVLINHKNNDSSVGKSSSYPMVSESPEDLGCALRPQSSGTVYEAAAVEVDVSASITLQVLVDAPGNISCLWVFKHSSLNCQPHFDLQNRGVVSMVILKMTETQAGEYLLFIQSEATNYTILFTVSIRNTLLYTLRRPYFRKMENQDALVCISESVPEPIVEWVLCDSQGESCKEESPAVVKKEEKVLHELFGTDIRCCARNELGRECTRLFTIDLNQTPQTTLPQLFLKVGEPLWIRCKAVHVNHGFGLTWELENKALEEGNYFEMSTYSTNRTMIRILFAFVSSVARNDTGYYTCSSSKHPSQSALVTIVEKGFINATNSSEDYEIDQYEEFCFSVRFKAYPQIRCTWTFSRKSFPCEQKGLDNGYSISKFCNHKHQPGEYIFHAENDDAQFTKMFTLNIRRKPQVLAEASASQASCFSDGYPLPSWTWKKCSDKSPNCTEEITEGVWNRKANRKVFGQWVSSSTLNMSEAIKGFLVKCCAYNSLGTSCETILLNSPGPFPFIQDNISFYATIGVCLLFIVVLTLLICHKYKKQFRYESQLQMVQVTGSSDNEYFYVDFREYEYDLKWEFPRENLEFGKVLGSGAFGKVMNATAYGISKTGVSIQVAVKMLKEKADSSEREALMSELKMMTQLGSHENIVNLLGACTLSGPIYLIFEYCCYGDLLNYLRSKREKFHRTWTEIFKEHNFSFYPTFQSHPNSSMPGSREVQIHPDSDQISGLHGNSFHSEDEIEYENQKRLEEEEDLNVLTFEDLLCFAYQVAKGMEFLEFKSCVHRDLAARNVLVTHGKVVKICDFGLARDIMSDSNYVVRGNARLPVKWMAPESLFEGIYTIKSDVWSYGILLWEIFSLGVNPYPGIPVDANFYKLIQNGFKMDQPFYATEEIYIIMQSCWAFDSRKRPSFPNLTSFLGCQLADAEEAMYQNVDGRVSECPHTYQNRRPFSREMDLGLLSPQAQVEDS
Description: ELISA kinase assay, Flt-3. As to conditions: for inhibition at 0.1 µM: read-out: Flt-3 inhibition@100 nmol/L; for inhibition at 0.01 µM: read-out: Flt-3 inhibition @10 nmol/L.

The target in assay [3] is RET (Homo sapiens, UniProt P07949). Description: ELISA kinase assay, RET. To be noted: for inhibition at 0.1 µM: read-out: RET inhibition @100 nmol/L; for inhibition at 0.01 µM: read-out: RET inhibition @10 nmol/L.

Each structure is given as a SMILES string.

RET, sequence (P07949 29-1114): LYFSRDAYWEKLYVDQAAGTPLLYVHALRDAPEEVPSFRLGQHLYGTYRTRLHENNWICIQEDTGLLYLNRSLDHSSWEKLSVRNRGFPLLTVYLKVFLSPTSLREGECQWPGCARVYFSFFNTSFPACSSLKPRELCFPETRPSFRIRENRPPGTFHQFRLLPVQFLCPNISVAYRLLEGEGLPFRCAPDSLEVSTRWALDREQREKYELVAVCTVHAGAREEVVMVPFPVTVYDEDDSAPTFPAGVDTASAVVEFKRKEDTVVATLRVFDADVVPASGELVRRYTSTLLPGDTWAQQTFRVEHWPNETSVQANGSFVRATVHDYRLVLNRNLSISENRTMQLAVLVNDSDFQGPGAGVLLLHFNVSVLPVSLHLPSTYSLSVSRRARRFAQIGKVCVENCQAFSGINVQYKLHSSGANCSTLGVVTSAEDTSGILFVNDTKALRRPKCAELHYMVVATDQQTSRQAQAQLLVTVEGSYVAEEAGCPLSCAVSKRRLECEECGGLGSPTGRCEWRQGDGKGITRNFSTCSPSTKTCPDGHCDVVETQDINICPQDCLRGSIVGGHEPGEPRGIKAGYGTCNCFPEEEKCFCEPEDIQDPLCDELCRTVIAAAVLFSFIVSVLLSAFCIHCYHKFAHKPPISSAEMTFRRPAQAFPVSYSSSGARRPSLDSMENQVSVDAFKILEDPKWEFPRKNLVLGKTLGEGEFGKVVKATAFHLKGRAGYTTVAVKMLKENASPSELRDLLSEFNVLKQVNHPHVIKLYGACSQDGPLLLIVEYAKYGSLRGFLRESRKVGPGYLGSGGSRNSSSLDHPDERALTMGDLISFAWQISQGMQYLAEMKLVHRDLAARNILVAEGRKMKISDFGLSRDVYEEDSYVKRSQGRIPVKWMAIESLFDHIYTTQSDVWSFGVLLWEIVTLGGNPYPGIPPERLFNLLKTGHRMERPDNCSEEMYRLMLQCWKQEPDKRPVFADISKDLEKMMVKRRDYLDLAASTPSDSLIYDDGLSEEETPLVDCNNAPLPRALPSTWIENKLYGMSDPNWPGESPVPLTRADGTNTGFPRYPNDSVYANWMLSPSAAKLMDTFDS

As to `Cc1ccc(C(=O)Nc2cccc(C(F)(F)F)c2)cc1-c1ccc2nc(N)ncc2c1` [Compound 15, 3-(2-Aminoquinazolin-6-yl)-4-methyl-N-(3-(trifluoromethyl)phenyl)benzamide], the IC50 (usually the concentration that gives 50% inhibition) in assay [1] turned out to be 1.9 ± 0.4 nM.
`CCc1ccc(C(=O)Nc2cccc(C(F)(F)F)c2)cc1-c1ccc2nc(Nc3cnn(C)c3)ncc2c1` [Compound 32, 4-Ethyl-3-(2-((1-methyl-1H-pyrazol-4-yl)amino)quinazolin-6-yl)-N-(3-(trifluoromethyl)phenyl)benzamide] displayed a half-maximal inhibitory concentration (IC50) in assay [1] of 4.1 ± 0.7 nM. The inhibition at 0.1 µM worked out at 61.8% in assay [2] and 77.1% in assay [3].
Molecule `Cc1ccc(C(=O)Nc2cccc(C(F)(F)F)c2)cc1-c1ccc2nc(Nc3cccc(N4CCN(C)CC4)c3)ncc2c1` [Compound 21, 4-Methyl-3-(2-((3-(4-methylpiperazin-1-yl)phenyl)amino)quinazolin-6-yl)-N-(3-(trifluoromethyl)phenyl)benzamide] yielded an IC50 in assay [1] of 6.3 ± 0.5 nM.
The molecule `Cc1ccc(C(=O)Nc2cccc(C(F)(F)F)c2)cc1-c1ccc2nc(NC3CC3)ncc2c1` [Compound 16, 3-(2-(Cyclopropylamino)quinazolin-6-yl)-4-methyl-N-(3-(trifluoromethyl)phenyl)benzamide] had a 50% inhibitory concentration (IC50) in assay [1] of 9.9 ± 1 nM.
In turn, `CC(=O)N1CCN(Cc2cc(NC(=O)c3ccc(C)c(-c4ccc5nc(Nc6cnn(C)c6)ncc5c4)c3)cc(C(F)(F)F)c2)CC1` [Compound 28, N-(3-((4-Acetylpiperazin-1-yl)methyl)-5-(trifluoromethyl)phenyl)-4-methyl-3-(2-((1-methyl-1H-pyrazol-4-yl)amino)quinazolin-6-yl)benzamide] displayed an IC50 in assay [1] of 1.8 ± 0.1 nM. Further, the inhibition at 0.01 µM in assay [2] was 92.4%; in assay [3], 91.8%.
As for `Cc1ccc(C(=O)Nc2cc(CN3CCCN(C)CC3)cc(C(F)(F)F)c2)cc1-c1ccc2nc(Nc3cnn(C)c3)ncc2c1` [Compound 30, 4-Methyl-N-(3-((4-methyl-1,4-diazepan-1-yl)methyl)-5-(trifluoromethyl)phenyl)-3-(2-((1-methyl-1H-pyrazol-4-yl)amino)quinazolin-6-yl)benzamide], in assay [1], half-maximal inhibition (IC50) required 2.8 ± 0.2 nM. Further, the inhibition at 0.01 µM was 97% in assay [2] and 93.2% in assay [3].
On to `Cn1cc(Nc2ncc3cc(-c4cc(C(=O)Nc5cccc(C(F)(F)F)c5)ccc4C4CC4)ccc3n2)cn1` [Compound 35, 4-Cyclopropyl-3-(2-((1-methyl-1H-pyrazol-4-yl)amino)quinazolin-6-yl)-N-(3-(trifluoromethyl)phenyl)benzamide], for which the inhibition at 0.1 µM in assay [2] worked out at 37.1%; in assay [3], 50.7%.
The molecule `Cc1ccc(C(=O)Nc2cc(CN3CCN(C)CC3)cc(C(F)(F)F)c2)cc1-c1ccc2nc(Nc3cnn(C)c3)ncc2c1` [Compound 25, 4-Methyl-3-(2-((1-methyl-1H-pyrazol-4-yl)amino)quinazolin-6-yl)-N-(3-((4-methylpiperazin-1-yl)methyl)-5-(trifluoromethyl)phenyl)benzamide] yielded an IC50 in assay [1] of 1.7 ± 0.3 nM. Besides, the results for the inhibition at 0.01 µM in assay [2] and in assay [3] were 93.5% and 93.9%, respectively.
`Cc1ccc(C(=O)Nc2cccc(C(F)(F)F)c2)cc1-c1ccc2ncnc(N)c2c1` [Compound 14, 3-(4-Aminoquinazolin-6-yl)-4-methyl-N-(3-(trifluoromethyl)phenyl)benzamide] gave a half-inhibitory concentration (IC50) in assay [1] of 3.8 ± 0.2 nM.
Take `Cc1ccc(C(=O)Nc2cccc(C(F)(F)F)c2)cc1-c1ccc2ccncc2c1` [Compound 11, 3-(Isoquinolin-7-yl)-4-methyl-N-(3-(trifluoromethyl)phenyl)benzamide]: half-maximal inhibition in assay [1] (IC50) was put at 1.6 ± 0.1 nM.
In assay [1], `Cc1ccc(C(=O)Nc2cccc(C(F)(F)F)c2)cc1-c1ccc2ncncc2c1` [Compound 13, 4-Methyl-3-(quinazolin-6-yl)-N-(3-(trifluoromethyl)phenyl)benzamide] displayed an IC50 of 2.6 ± 0.1 nM.
In assay [1], `Cc1ccc(C(=O)Nc2cc(CN3C[C@H]4CC[C@@H](C3)N4C)cc(C(F)(F)F)c2)cc1-c1ccc2nc(Nc3cnn(C)c3)ncc2c1` [Compound 31, 4-Methyl-3-(2-((1-methyl-1H-pyrazol-4-yl)amino)quinazolin-6-yl)-N-(3-(((1R,5S)-8-methyl-3,8-diazabicyclo[3.2.1]octan-3-yl)methyl)-5-(trifluoromethyl)phenyl)benzamide] registered an IC50 of 2.9 ± 0.2 nM. Further, the inhibition at 0.01 µM turned out to be 96% in assay [2] and 95% in assay [3].
Molecule `Cc1ccc(C(=O)Nc2cccc(C(F)(F)F)c2)cc1-c1ccc2nc(Nc3ccc(N4CCN(C)CC4)cc3)ncc2c1` [Compound 20, 4-Methyl-3-(2-((4-(4-methylpiperazin-1-yl)phenyl)amino)quinazolin-6-yl)-N-(3-(trifluoromethyl)phenyl)benzamide] displayed an IC50 in assay [1] of 5.7 ± 0.3 nM.
In turn, `Cc1ccc(C(=O)Nc2cccc(C(F)(F)F)c2)cc1-c1ccc2c(c1)NC(=O)C2` [Compound 9, 4-Methyl-3-(2-oxoindolin-6-yl)-N-(3-(trifluoromethyl)phenyl)benzamide] returned an IC50 in assay [1] of 4.9 ± 1.1 nM.
For `Cc1ccc(C(=O)Nc2cccc(C(F)(F)F)c2)cc1-c1ccc2c(c1)COCC2` [Compound 10, 3-(Isochroman-7-yl)-4-methyl-N-(3-(trifluoromethyl)phenyl)benzamide], the midpoint of inhibition in assay [1], the IC50, lay at 20.9 ± 5.2 nM. This IC50 lies about 4.3-fold higher than the previous one.
On to `Cc1ccc(C(=O)Nc2cccc(C(F)(F)F)c2)cc1-c1ccc2nc(Nc3cnn(C)c3)nc(N)c2c1` [Compound 23, 3-(4-Amino-2-((1-methyl-1H-pyrazol-4-yl)amino)quinazolin-6-yl)-4-methyl-N-(3-(trifluoromethyl)phenyl)benzamide], for which, in assay [1], the 50% inhibitory concentration (IC50) was 6.5 ± 1.5 nM. Against the preceding molecule, the IC50 is about 3.2-fold lower.
In the case of `CC(C)c1ccc(C(=O)Nc2cccc(C(F)(F)F)c2)cc1-c1ccc2nc(Nc3cnn(C)c3)ncc2c1` [Compound 34, 4-Isopropyl-3-(2-((1-methyl-1H-pyrazol-4-yl)amino)quinazolin-6-yl)-N-(3-(trifluoromethyl)phenyl)benzamide], the inhibition at 0.1 µM worked out at 56.8% in assay [2] and 54.5% in assay [3].
`Cc1ccc(C(=O)Nc2cccc(C(F)(F)F)c2)cc1-c1ccc2nc(N3CCN(C)CC3)ncc2c1` [Compound 19, 4-Methyl-3-(2-(4-methylpiperazin-1-yl)quinazolin-6-yl)-N-(3-(trifluoromethyl)phenyl)benzamide] showed a concentration for half-maximal inhibition (IC50) in assay [1] of 42.4 ± 2.3 nM.
On the same count and under the same terms, for `Cc1ccc(C(=O)Nc2cccc(C(F)(F)F)c2)cc1-c1ccc2nc(NCCN3CCOCC3)ncc2c1` [Compound 18, 4-Methyl-3-(2-((2-morpholinoethyl)amino)quinazolin-6-yl)-N-(3-(trifluoromethyl)phenyl)benzamide] the value was 3.4 ± 0.7 nM; for `Cc1ccc(C(=O)Nc2cccc(C(F)(F)F)c2)cc1-c1ccc2cnccc2c1` [Compound 12, 3-(Isoquinolin-6-yl)-4-methyl-N-(3-(trifluoromethyl)phenyl)benzamide], 36.5 ± 1 nM; for `Cc1ccc(C(=O)Nc2cccc(C(F)(F)F)c2)cc1-c1ccc2nc(NC3CCN(C)CC3)ncc2c1` [Compound 17, 4-Methyl-3-(2-((1-methylpiperidin-4-yl)amino)quinazolin-6-yl)-N-(3-(trifluoromethyl)phenyl)benzamide], 10.5 ± 1 nM.

(Values after paper PMC9279635 (Acta Pharmaceutica Sinica. B, 2021).)
